Experimental data: patent US10793892B2, “Method for detecting the presence of expanded spectrum β-lactamase-producing bacteria in a sample” (INSERM (INSTITUT NATIONAL DE LA SANTE ET DE LA RECHERCHE …, priority 2011, dated 2020)

Assays:
[1] = system: K. pneumoniae; assay: ESBL NDP test using spiked blood cultures; assay type: biochemical, Klebsiella pneumoniae; set-up: key: (+) and (−) referred to color change being, red to yellow or unchanged, respectively; (+) and (−) referred to color change being, red to yellow or unchanged, respectively
Procedure: (§1) Strains were isolated on Mueller-Hinton agar (Biorad, Marnes-la-Coquette, France) and incubated at 37° C. for 16 h to 24 h before performing the NDP rapid ESBL test as follows. One calibrated inoculated loop (10 μl) of the tested strain was resuspended in 150 μl of 20 mM Tris-HCl lysis buffer previously distributed in Microbead tubes (Ultraclean Microbial DNA isolation kit Bead Tubes, MO BIO Laboratories, Carlsbad, USA). Mechanical lysis of bacteria was performed by strong agitation of Microbead tubes using a vortex adapter (MO BIO Laboratories) for 30 min at room temperature. This bacterial suspension was centrifuged at 10,000×g at room temperature for 5 min. Thirty μl of the supernatant was mixed in a well of a 96-well tray with 100 μl of a 1 ml solution made of 3 mg of purified cefotaxime sodium salt (Sigma-Aldrich, Saint-Quentin-Fallavier, France) in a pH 7.8 phenol red solution. […]. The phenol red solution was made by taking 2 ml of a concentrated pH 8 phenol solution (made from a mixture of phenol red 0.5% in distilled water) to which 16.6 ml of distilled water was added. The pH value was then adjusted to a 7.8 value by adding drops of a 1 N NaOH solution. Mixture of the phenol red solution and the enzymatic suspension being tested was incubated at 37° C. for 30 min. Similarly, culture extracts were analyzed in wells containing cefotaxime and tazobactam (4 mg/ml). Other concentrations of tazobactam and other ß-lactamase inhibitors were tested giving less clear results (data not shown). […] This definition of test positivity will be applied throughout the study.
Rapid detection of ESBL producers was attempted from spiked blood cultures which positivity was assessed using the BactAlert blood culture system (bioMérieux). […] This inoculum was reached after 24-48 h incubation in this BactAlert system. Strains were inoculated into blood culture system in presence of 10 ml of sterile blood. The panel of strains used for spiking blood cultures included either non-ESBL producers (n=24) or ESBL producers (n=64) (Table 4). Spiked blood cultures were made of 1×10^3 CFU of each strain and incubated 24 to 48 h before a positivity of the blood culture was detected by the BactAlert system. Then, 15 ml of spiked blood culture were transferred in a sterile tube and centrifuged at 1,500×g for 3 min to pellet the red blood cells. The supernatant was recovered and centrifuged for 15 min at 4,000×g to pellet the bacteria. The bacterial pellet was then resuspended in 500 μl of distilled water, transferred in 1.5 ml tube and thoroughly vortexed for 15 sec to lyse the remnant red blood cells and wash the bacterial pellet. After 5 min of centrifugation at 10,000×g, the bacterial pellet was resuspended in 150 μl of 20 mM Tris-HCl lysis buffer and distributed in beadtubes. The ESBL NDP test was then applied to this pellet as described above. Experiments were systematically performed in triplicate.

[2] = system: M. morganii; assay: ESBL NDP test using cultured strains; assay type: biochemical, Morganella morganii; set-up: key: (+) and (−) referred to color change being, red to yellow or unchanged, respectively; (+) and (−) referred to color change being, red to yellow or unchanged, respectively
Procedure: as §1

[3] = system: S. marcescens; assay: Susceptibility testing, MIC by Etest; assay type: cell-based, Serratia marcescens; details: S. marcescens Wild-type, chromosome-encoded cephalosporinase, n=2
Procedure: Susceptibility testing was performed by determining MIC values using the Etest® (AB bioMérieux; Solna, Sweden) on Mueller-Hinton agar plates at 37° C. and results were recorded according to US guidelines (CLSI), as updated in 2012 (2). The breakpoints for cefotaxime are susceptible (S)≤1 and resistant (R)≥4 μg/ml, and for ceftazidime S≤4 and R≥16 μg/ml.

[4] = system: C. freundii; assay: ESBL NDP test using cultured strains; assay type: biochemical, Citrobacter freundii; set-up: key: (+) and (−) referred to color change being, red to yellow or unchanged, respectively; (+) and (−) referred to color change being, red to yellow or unchanged, respectively
Procedure: as §1

[5] = system: S. thyphimurium; assay: ESBL NDP test using cultured strains; assay type: biochemical; set-up: key: (+) and (−) referred to color change being, red to yellow or unchanged, respectively; (+) and (−) referred to color change being, red to yellow or unchanged, respectively; details: S. thyphimurium 10.81, CTX-M-1
Procedure: as §1

[6] = system: C. brakii; assay: ESBL NDP test using cultured strains; assay type: biochemical; set-up: key: (+) and (−) referred to color change being, red to yellow or unchanged, respectively; (+) and (−) referred to color change being, red to yellow or unchanged, respectively; details: C. brakii Wild-type, chromosome-encoded cephalosporinase, n=1
Procedure: as §1

[7] = system: S. ficaria; assay: ESBL NDP test using cultured strains; assay type: biochemical; set-up: key: (+) and (−) referred to color change being, red to yellow or unchanged, respectively; (+) and (−) referred to color change being, red to yellow or unchanged, respectively
Procedure: as §1

[8] = system: E. sakazakii; assay: ESBL NDP test using cultured strains; assay type: biochemical; set-up: key: (+) and (−) referred to color change being, red to yellow or unchanged, respectively; (+) and (−) referred to color change being, red to yellow or unchanged, respectively; details: overexpressed chromosome-encoded cephalosporinase, n=1
Procedure: as §1

[9] = system: K. oxytoca; assay: ESBL NDP test using cultured strains; assay type: biochemical, Klebsiella oxytoca; set-up: key: (+) and (−) referred to color change being, red to yellow or unchanged, respectively; (+) and (−) referred to color change being, red to yellow or unchanged, respectively; details: K. oxytoca Wild-type penicillinase, n=1
Procedure: (§2) Strains were isolated on Mueller-Hinton agar (Biorad, Marnes-la-Coquette, France) and incubated at 37° C. for 16 h to 24 h before performing the NDP rapid ESBL test as follows. One calibrated inoculated loop (10 μl) of the tested strain was resuspended in 150 μl of 20 mM Tris-HCl lysis buffer previously distributed in Microbead tubes (Ultraclean Microbial DNA isolation kit Bead Tubes, MO BIO Laboratories, Carlsbad, USA). Mechanical lysis of bacteria was performed by strong agitation of Microbead tubes using a vortex adapter (MO BIO Laboratories) for 30 min at room temperature. This bacterial suspension was centrifuged at 10,000×g at room temperature for 5 min. Thirty μl of the supernatant was mixed in a well of a 96-well tray with 100 μl of a 1 ml solution made of 3 mg of purified cefotaxime sodium salt (Sigma-Aldrich, Saint-Quentin-Fallavier, France) in a pH 7.8 phenol red solution. […]. The phenol red solution was made by taking 2 ml of a concentrated pH 8 phenol solution (made from a mixture of phenol red 0.5% in distilled water) to which 16.6 ml of distilled water was added. The pH value was then adjusted to a 7.8 value by adding drops of a 1 N NaOH solution. Mixture of the phenol red solution and the enzymatic suspension being tested was incubated at 37° C. for 30 min. Similarly, culture extracts were analyzed in wells containing cefotaxime and tazobactam (4 mg/ml). […]

[10] = system: S. enterica; assay: ESBL NDP test using cultured strains; assay type: biochemical, Salmonella enterica; set-up: key: (+) and (−) referred to color change being, red to yellow or unchanged, respectively; (+) and (−) referred to color change being, red to yellow or unchanged, respectively
Procedure: as §2

CO/N=C(\C(=O)N[C@@H]1C(=O)N2C(C(=O)O)=C(COC(C)=O)CS[C@H]12)c1csc(N)n1 [CTX, cefotaxime]
ESBL NDP Test from: Blood culture ([1]; K. pneumoniae 09.127, SHV-2a): +
ESBL NDP Test from: Blood culture ([1]; K. pneumoniae 09.138, TEM-3): +
ESBL NDP Test from: Blood culture ([1]; K. pneumoniae 09.158, SHV-12): +
ESBL NDP Test from: Blood culture ([1]; K. pneumoniae 09.162, TEM-52): +
ESBL NDP Test from: Blood culture ([1]; K. pneumoniae 09.169, TEM-52): +
ESBL NDP Test from: Blood culture ([1]; K. pneumoniae 09.181, SHV-2a): +
ESBL NDP Test from: Blood culture ([1]; K. pneumoniae 09.190, SHV-2a): +
ESBL NDP Test from: Blood culture ([1]; K. pneumoniae 09.200, TEM-3): +
ESBL NDP Test from: Blood culture ([1]; K. pneumoniae 09.217, SHV-5): +
ESBL NDP Test from: Blood culture ([1]; K. pneumoniae 09.45, SHV-12): +
ESBL NDP Test from: Blood culture ([1]; K. pneumoniae 09.60, SHV-5): +
ESBL NDP Test from: Blood culture ([1]; K. pneumoniae 09.99, SHV-2a): +
ESBL NDP Test from: Blood culture ([1]; K. pneumoniae 10.159, CTX-M-3): +
ESBL NDP Test from: Blood culture ([1]; K. pneumoniae ANG, DHA-1): −
ESBL NDP Test from: Blood culture ([1]; K. pneumoniae BG 1202 5484, Penicillinase): −
ESBL NDP Test from: Blood culture ([1]; K. pneumoniae FOR, DHA-2): +
ESBL NDP Test from: Blood culture ([1]; K. pneumoniae MEK, CTX-M-15): +
ESBL NDP Test from: Blood culture ([1]; K. pneumoniae SHI, CTX-M-15): +
ESBL NDP Test from: Colonies ([2]; M. morganii BG 1106 5902, Wild-type): −
ESBL NDP Test from: Colonies ([2]; M. morganii BG 1117 0617, Wild-type): −
Test (color change) ([2]; M. morganii Wild-type, chromosome-encoded cephalosporinase, n=2): −
MICs range [3]: 0.19 to 0.75 µg/mL
ESBL NDP Test from: Colonies ([4]; C. freundii BG 1106 7767, Wild-type): −
Test (color change) ([4]; C. freundii CTX-M-15, n=3): +
Test (color change) ([4]; C. freundii TEM-3, n=1): +
Test (color change) ([4]; C. freundii Wild-type, chromosome-encoded cephalosporinase, n=1): −
ESBL NDP Test from: Colonies [5]: +
Test (color change) [6]: −
ESBL NDP Test from: Colonies ([7]; S. ficaria CIP 104255, Wild-type): −
Test (color change) ([7]; S. ficaria Wild-type, chromosome-encoded cephalosporinase, n=1): −
Test (color change) [8]: −
Test (color change) [9]: −
Test (color change) ([10]; S. enterica CTX-M-1, n=1): +
Test (color change) ([10]; S. enterica Wild-type, no resistance, n=1): −
